Source: US4198502A, “Aminopyrrole derivatives” (Gruppo Lepetit S.p.A., priority 1973, dated 1980)

Tests used:
[1] = test system: carrageenin-induced edema; experiment: carrageenin-induced edema test in rats (anti-inflammatory); assay type: in vivo; settings: Rattus norvegicus, po, read-out: % Decrease of the induced edema; for inhibition in vivo at 5 mg/kg: 5 mg/kg p.o.; for inhibition in vivo at 10 mg/kg: 10 mg/kg p.o.; for inhibition in vivo at 20 mg/kg: 20 mg/kg p.o.; for inhibition in vivo at 50 mg/kg: 50 mg/kg p.o.; for inhibition in vivo at 100 mg/kg: 100 mg/kg p.o.; for inhibition in vivo at 200 mg/kg: 200 mg/kg p.o.
Method: (§1) An aspect of the anti-inflammatory utility was evidenced by means of the carrageenin-induced edema test in rats, which was performed according to the methodology described by C. A. Winter et al., Proc. Soc. Exptl. Biol. Med., 111, 544, 1962. […] It is also to be noted that the toxicities of the aminopyrrole derivatives which are the object of the present invention are very low; with few exceptions, their LD50 values are always higher than 1000 mg/kg p.o. in mice. Toxicities were determined according to the procedure described by Lichtfield and Wilcoxon, J. Pharm. Exp. Therm., 96, 99, 1949.
The following Table summarizes the aforementioned anti-inflammatory action and LD50 values.

[2] = CNS-depressant utility, general method of S. Irwin; settings: in vivo
Text: This characteristic was investigated according to the general method proposed by S. Irwin, Psychopharmacologia (Berl.), 13, 222, 1968. […] This is undoubtedly another vary favorable characteristic of the inventive compounds, as a certain sedative and myorelaxing effect is useful in patients affected by severe inflammatory disease.

[3] = acute toxicity (LD50), procedure of Lichtfield and Wilcoxon; settings: mouse, in vivo, po, mice
Method: as §1

CC(=O)c1c(C)[nH]c(-c2ccccc2)c1N.Cl [Example 1, 4-Acetyl-3-amino-5-methyl-2-phenylpyrrole hydrochloride]
inhibition in vivo at 5 mg/kg [1]: 23.4% | inhibition in vivo at 10 mg/kg [1]: 32.5% | inhibition in vivo at 20 mg/kg [1]: 39% | inhibition in vivo at 50 mg/kg [1]: 43.8% | inhibition in vivo at 100 mg/kg [1]: 58.9% | inhibition in vivo at 200 mg/kg [1]: 76.6% | sedative and myorelaxing activity [2]: good degree of sedative and myorelaxing activity | LD50 [3]: > 1000 mg/kg

CCOC(=O)c1c(C)[nH]c(-c2ccccc2)c1N.Cl [Example 2, 3-Amino-4-carbethoxy-5-methyl-2-phenylpyrrole hydrochloride]
inhibition in vivo at 100 mg/kg [1]: 36.5% | inhibition in vivo at 200 mg/kg [1]: 44.3% | LD50 [3]: > 1000 mg/kg

Cc1[nH]c(-c2ccccc2)c(N)c1C(=O)c1ccccc1 [Example 3, 3-Amino-4-benzoyl-5-methyl-2-phenylpyrrole]
inhibition in vivo at 100 mg/kg [1]: 40.6% | inhibition in vivo at 200 mg/kg [1]: 53.9% | LD50 [3]: > 1000 mg/kg

CCOC(=O)c1c[nH]c(-c2ccccc2)c1N.Cl [Example 6, 3-Amino-4-carbethoxy-2-phenylpyrrole hydrochloride]
inhibition in vivo at 100 mg/kg [1]: 25.7% | inhibition in vivo at 200 mg/kg [1]: 35% | LD50 [3]: > 1000 mg/kg

CC(=O)c1c(C)[nH]c(-c2ccc(C)cc2)c1N [Example 13, 4-Acetyl-3-amino-5-methyl-2-(p-tolyl)-pyrrole]
inhibition in vivo at 5 mg/kg [1]: 23.2% | inhibition in vivo at 10 mg/kg [1]: 31.9% | inhibition in vivo at 20 mg/kg [1]: 43.5% | inhibition in vivo at 50 mg/kg [1]: 50.7% | inhibition in vivo at 100 mg/kg [1]: 69.6% | inhibition in vivo at 200 mg/kg [1]: 75.4% | LD50 [3]: > 1000 mg/kg

COc1ccc(-c2[nH]c(C)c(C(C)=O)c2N)cc1 [Example 14, 4-Acetyl-3-amino-2-(p-methoxyphenyl)-5-methylpyrrole]
inhibition in vivo at 5 mg/kg [1]: 23% | inhibition in vivo at 10 mg/kg [1]: 31.1% | inhibition in vivo at 20 mg/kg [1]: 35.1% | inhibition in vivo at 50 mg/kg [1]: 41.9% | inhibition in vivo at 100 mg/kg [1]: 55.4% | inhibition in vivo at 200 mg/kg [1]: 67.6% | LD50 [3]: > 1000 mg/kg

CCOC(=O)c1c(C)[nH]c(-c2ccc(C)cc2)c1N.Cl [Example 15, 3-Amino-4-carbethoxy-5-methyl-2-(p-tolyl)-pyrrole hydrochloride]
inhibition in vivo at 50 mg/kg [1]: 29.6% | inhibition in vivo at 100 mg/kg [1]: 40.8% | inhibition in vivo at 200 mg/kg [1]: 58.3% | sedative and myorelaxing activity [2]: good degree of sedative and myorelaxing activity | LD50 [3]: > 1000 mg/kg

CC(=O)c1c(C)[nH]c(-c2ccc(F)cc2)c1N [Example 17, 4-Acetyl-3-amino-2-(p-fluorophenyl)-5-methylpyrrole]
inhibition in vivo at 100 mg/kg [1]: 35.4% | inhibition in vivo at 200 mg/kg [1]: 47.9% | LD50 [3]: > 1000 mg/kg

CCOC(=O)c1c(N)c[nH]c1C.Cl [Example 19, 3-Amino-4-carbethoxy-5-methylpyrrole hydrochloride]
inhibition in vivo at 50 mg/kg [1]: 24.3% | inhibition in vivo at 100 mg/kg [1]: 45.9% | LD50 [3]: 500 mg/kg

Cc1[nH]c(-c2ccccc2)c(N)c1C(=O)C(C)C [Example 20, 3-Amino-4-isobutyryl-5-methyl-2-phenylpyrrole]
inhibition in vivo at 50 mg/kg [1]: 24.2% | inhibition in vivo at 100 mg/kg [1]: 37.3% | inhibition in vivo at 200 mg/kg [1]: 44.9% | LD50 [3]: > 1000 mg/kg

CCC(=O)c1c(C)[nH]c(-c2ccccc2)c1N [Example 21, 3-Amino-5-methyl-2-phenyl-4-propionylpyrrole]
inhibition in vivo at 20 mg/kg [1]: 25.3% | inhibition in vivo at 50 mg/kg [1]: 36% | inhibition in vivo at 100 mg/kg [1]: 43% | LD50 [3]: 500 mg/kg

COc1ccc(C(=O)c2c(C)[nH]c(-c3ccccc3)c2N)cc1 [Example 24, 3-Amino-4-(p-methoxybenzoyl)-5-methyl-2-phenylpyrrole]
inhibition in vivo at 20 mg/kg [1]: 20.6% | inhibition in vivo at 50 mg/kg [1]: 32.3% | inhibition in vivo at 100 mg/kg [1]: 42.2% | LD50 [3]: 500 mg/kg

CC(=O)c1c(C)[nH]c(-c2ccc(Cl)cc2)c1N [Example 26, 4-Acetyl-3-amino-2-(p-chlorophenyl)-5-methylpyrrole]
inhibition in vivo at 20 mg/kg [1]: 29.2% | inhibition in vivo at 50 mg/kg [1]: 43.1% | inhibition in vivo at 100 mg/kg [1]: 58.5% | inhibition in vivo at 200 mg/kg [1]: 71% | LD50 [3]: > 1000 mg/kg

CC(=O)c1c(C)[nH]c(-c2ccccc2C)c1N [Example 29, 4-Acetyl-3-amino-2-(o-tolyl)-5-methylpyrrole]
inhibition in vivo at 50 mg/kg [1]: 26.4% | inhibition in vivo at 100 mg/kg [1]: 33.8% | inhibition in vivo at 200 mg/kg [1]: 42.6% | LD50 [3]: > 1000 mg/kg

CNC(=O)c1c(C)[nH]c(-c2ccccc2)c1N.Cl [Example 31, 3-Amino-5-methyl-4-methylcarbamoyl-2-phenylpyrrole hydrochloride]
inhibition in vivo at 50 mg/kg [1]: 26.1% | inhibition in vivo at 100 mg/kg [1]: 34.8% | inhibition in vivo at 200 mg/kg [1]: 42% | LD50 [3]: ~1000 mg/kg

CCCC(=O)c1c(CCC)[nH]c(-c2ccccc2)c1N.Cl [Example 34, 3-Amino-4-butyryl-2-phenyl-5-propylpyrrole hydrochloride]
inhibition in vivo at 50 mg/kg [1]: 39.1% | inhibition in vivo at 100 mg/kg [1]: 50% | inhibition in vivo at 200 mg/kg [1]: 61.3% | LD50 [3]: ~1000 mg/kg

CCCC(=O)c1c(C)[nH]c(-c2ccccc2)c1N.Cl [Example 35, 3-Amino-4-butyryl-5-methyl-2-phenylpyrrole hydrochloride]
inhibition in vivo at 50 mg/kg [1]: 32.4% | inhibition in vivo at 100 mg/kg [1]: 42% | LD50 [3]: 500 mg/kg

CC(=O)c1c(C)[nH]c(-c2ccccc2)c1N(C)C [Example 43, 4-Acetyl-3-dimethylamino-5-methyl-2-phenylpyrrole]
inhibition in vivo at 100 mg/kg [1]: 25.3% | inhibition in vivo at 200 mg/kg [1]: 45.6% | LD50 [3]: > 1000 mg/kg

CC(=O)c1c(C)[nH]c(-c2ccccc2)c1N=Cc1ccc(Cl)cc1 [Example 45, 4-Acetyl-3-(p-chlorobenzylideneamino)-5-methyl-2-phenylpyrrole]
inhibition in vivo at 50 mg/kg [1]: 23.9% | inhibition in vivo at 100 mg/kg [1]: 47.9% | inhibition in vivo at 200 mg/kg [1]: 68.2% | LD50 [3]: > 1000 mg/kg

CC(=O)c1c(C)[nH]c(-c2ccccc2)c1N=Cc1ccccc1 [Example 46, 4-Acetyl-3-benzylideneamino-5-methyl-2-phenylpyrrole]
inhibition in vivo at 20 mg/kg [1]: 23.9% | inhibition in vivo at 50 mg/kg [1]: 35.2% | inhibition in vivo at 100 mg/kg [1]: 47.9% | inhibition in vivo at 200 mg/kg [1]: 69% | LD50 [3]: > 1000 mg/kg

CC(=O)c1c(N=Cc2ccccc2)c(-c2ccccc2)n(C)c1C [Example 49a, 4-acetyl-3-benzylideneamino-1,5-dimethyl-2-phenylpyrrole]
inhibition in vivo at 100 mg/kg [1]: 31% | inhibition in vivo at 200 mg/kg [1]: 53.1% | LD50 [3]: > 1000 mg/kg

CC(=O)c1c(N)c(-c2ccccc2)n(C)c1C [Example 49b, 4-Acetyl-3-amino-1,5-dimethyl-2-phenyl-pyrrole]
inhibition in vivo at 50 mg/kg [1]: 11% | inhibition in vivo at 100 mg/kg [1]: 34.3% | inhibition in vivo at 200 mg/kg [1]: 52.7% | LD50 [3]: > 1000 mg/kg

CC(=O)c1c(N(C)C)c(-c2ccccc2)n(Cc2ccccc2Cl)c1C [Example 53, 4-Acetyl-1-(o-chlorobenzyl)-5-methyl-3-dimethylamino-2-phenylpyrrole]
inhibition in vivo at 100 mg/kg [1]: 30% | inhibition in vivo at 200 mg/kg [1]: 37.1% | LD50 [3]: > 1000 mg/kg

CC(=O)c1c(N(C)C)c(-c2ccccc2)n(Cc2ccc(Cl)cc2)c1C [Example 54, 4-Acetyl-1-(p-chlorobenzyl)-5-methyl-3-dimethylamino-2-phenylpyrrole]
inhibition in vivo at 100 mg/kg [1]: 38% | inhibition in vivo at 200 mg/kg [1]: 47.6% | LD50 [3]: > 1000 mg/kg

COC(=O)c1c(C(N)=O)[nH]c(-c2ccccc2)c1N [Example 55, 3-Amino-5-carbamoyl-4-carbomethoxy-2-phenyl-pyrrole]
inhibition in vivo at 50 mg/kg [1]: 27.1% | inhibition in vivo at 100 mg/kg [1]: 41.4% | inhibition in vivo at 200 mg/kg [1]: 56.3% | LD50 [3]: 1000 mg/kg
